Reference: ChEMBL document CHEMBL4382281, “ASK1: A Therapeutic Target for the Treatment of Multiple Diseases” (ACS Med Chem Lett, 2019)

Assays:
[1] = target: T1, Mitogen-activated protein kinase kinase kinase 5 (Homo sapiens, UniProt Q99683); assay: Inhibition of recombinant V5-tagged ASK1 (unknown origin) expressed in HEK293 cells assessed as reduction in ASK1 autophosphorylation at T838 residue after 1 hr by MSD assay; type: cell-based
T1 sequence (Q99683 whole entry): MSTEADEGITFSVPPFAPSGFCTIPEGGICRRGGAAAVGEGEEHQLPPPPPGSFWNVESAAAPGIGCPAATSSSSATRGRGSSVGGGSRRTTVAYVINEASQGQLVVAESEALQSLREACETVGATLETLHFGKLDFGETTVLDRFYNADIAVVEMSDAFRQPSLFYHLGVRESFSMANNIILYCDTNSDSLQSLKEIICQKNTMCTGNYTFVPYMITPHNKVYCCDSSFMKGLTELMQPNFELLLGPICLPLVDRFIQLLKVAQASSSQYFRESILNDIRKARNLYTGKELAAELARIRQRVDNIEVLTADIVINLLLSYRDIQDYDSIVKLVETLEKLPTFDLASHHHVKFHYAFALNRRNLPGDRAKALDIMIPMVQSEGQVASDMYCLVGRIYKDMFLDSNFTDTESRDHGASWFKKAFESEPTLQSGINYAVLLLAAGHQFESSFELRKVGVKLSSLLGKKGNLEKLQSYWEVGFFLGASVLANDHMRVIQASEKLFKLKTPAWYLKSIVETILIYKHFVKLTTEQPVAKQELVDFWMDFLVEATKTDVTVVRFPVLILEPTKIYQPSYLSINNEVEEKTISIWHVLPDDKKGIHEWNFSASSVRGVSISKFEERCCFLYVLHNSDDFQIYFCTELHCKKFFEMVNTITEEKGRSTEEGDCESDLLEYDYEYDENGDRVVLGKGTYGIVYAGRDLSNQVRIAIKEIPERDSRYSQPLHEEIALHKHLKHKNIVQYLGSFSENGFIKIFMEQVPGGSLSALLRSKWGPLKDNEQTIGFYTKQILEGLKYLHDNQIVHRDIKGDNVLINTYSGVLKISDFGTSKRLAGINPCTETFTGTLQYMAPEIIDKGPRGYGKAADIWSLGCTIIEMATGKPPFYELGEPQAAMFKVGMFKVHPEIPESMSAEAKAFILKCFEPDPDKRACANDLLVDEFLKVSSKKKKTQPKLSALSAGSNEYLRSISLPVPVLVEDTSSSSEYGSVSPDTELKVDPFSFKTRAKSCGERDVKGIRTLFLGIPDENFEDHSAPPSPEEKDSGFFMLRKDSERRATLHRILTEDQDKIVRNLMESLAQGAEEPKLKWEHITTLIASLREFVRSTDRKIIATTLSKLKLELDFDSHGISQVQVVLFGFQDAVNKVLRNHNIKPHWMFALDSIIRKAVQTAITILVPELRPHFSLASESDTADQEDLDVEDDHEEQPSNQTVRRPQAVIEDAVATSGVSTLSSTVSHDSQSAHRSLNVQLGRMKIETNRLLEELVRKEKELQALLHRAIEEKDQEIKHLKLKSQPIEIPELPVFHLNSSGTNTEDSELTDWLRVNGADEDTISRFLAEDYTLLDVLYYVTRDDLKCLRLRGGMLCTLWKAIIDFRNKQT

[2] = target: T1, Mitogen-activated protein kinase kinase kinase 5; assay: Inhibition of full-length human GST-tagged ASK1 expressed in baculovirus expression system using biotinylated STK Substrate 3 preincubated for 10 mins followed by ATP addition and measured after 5 hrs by TR-FRET assay
[3] = target: T1, Mitogen-activated protein kinase kinase kinase 5; assay: Inhibition of human ASK1 using MBP as substrate measured in presence of [gamma-33P]-ATP

Row | IC50 [1] [µM] | IC50 [2] [µM] | IC50 [3] [µM] | SMILES
1 | > 10 | 0.1 to 1 |  | O=C1Nc2cccc(n2)-c2nncn2C/C=C/COc2c(Br)cccc21
2 | ≤ 1 | ≤ 0.1 | ≤ 0.1 | Cc1ccc2c(c1)C(=O)Nc1cccc(n1)-c1nncn1CCCCO2
3 | ≤ 1 | ≤ 0.1 | ≤ 0.1 | Cc1ncn(-c2ccc3c(c2)C(=O)Nc2cccc(n2)-c2nncn2CCCCO3)c1C
